Source: ChEMBL document CHEMBL5380814, “Targeting Receptor-Interacting Protein Kinase 1 by Novel Benzothiazole Derivatives: Treatment of Acute Lung Injury through the Necroptosis Pathway” (J Med Chem, 2023)
Activity calls are given as the source filed them. No cut-off for these calls is given here.

Legend:
HT-29 [1] = assay: Anti-necroptotic activity in human HT-29 cells assessed as inhibition of human TNFalpha/Smac mimetic/Z-VAD-FMK induced necroptosis preincubated with compound followed by TSZ stimulation for 12 hrs; format: functional, cell-based
HT-29 [2] = assay: Cytotoxicity against human HT-29 cells incubated for 16 to 24 hrs measured by cell-titre glo luminescent cell viability assay; format: functional; conditions: time 16-24 hrs
HT-29 [3] = assay: Cytotoxicity against human HT-29 cells incubated at 100 uM for 16 to 24 hrs measured by cell-titre glo luminescent cell viability assay; format: functional, cell-based; conditions: time 16-24 hrs
[4] = target: T1, Receptor-interacting serine/threonine-protein kinase 3 (Homo sapiens, UniProt Q9Y572); assay: Binding affinity to human wildtype full length RIPK3 (M1 to Q307 residues) expressed in bacterial expression system assessed as dissociation constant by kinome scan kd select based qPCR analysis
Target sequence in this assay (Q9Y572 whole entry, the tested form may be a part): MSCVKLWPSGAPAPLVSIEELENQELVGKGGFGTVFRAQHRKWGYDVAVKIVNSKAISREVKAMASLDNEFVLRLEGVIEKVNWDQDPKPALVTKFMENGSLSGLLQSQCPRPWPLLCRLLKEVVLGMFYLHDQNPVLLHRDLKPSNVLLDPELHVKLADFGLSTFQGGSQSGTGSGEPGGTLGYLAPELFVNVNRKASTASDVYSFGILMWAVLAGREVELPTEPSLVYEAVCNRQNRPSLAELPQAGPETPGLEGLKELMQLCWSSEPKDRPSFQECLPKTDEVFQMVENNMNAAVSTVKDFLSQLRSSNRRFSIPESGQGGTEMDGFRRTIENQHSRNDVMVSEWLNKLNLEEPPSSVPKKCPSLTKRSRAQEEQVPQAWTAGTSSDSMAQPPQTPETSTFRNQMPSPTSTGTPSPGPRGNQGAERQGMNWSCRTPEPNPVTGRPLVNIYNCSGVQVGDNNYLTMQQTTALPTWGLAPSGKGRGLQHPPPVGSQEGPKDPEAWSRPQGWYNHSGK

HT-29 [5] = assay: (§1) Anti-necroptotic activity in human HT-29 cells assessed as protection against human TNFalpha/Smac mimetic/Z-VAD-FMK induced necroptosis preincubated with compound at 50 nM for 16 to 24 hrs followed by TSZ stimulation for 12 hrs measured by cell-titre glo luminescent cell viability assay relative to control; format: functional; conditions: time 28-36 hrs
HT-29 [6] = assay: as §1, with “TNFalpha/cycloheximide/Z-VAD-FMK” for “TNFalpha/Smac mimetic/Z-VAD-FMK”, “0.3 uM” for “50 nM”, “TCZ” for “TSZ”, “16” for “12”; format: functional; conditions: time 32-40 hrs
HT-29 [7] = assay: Anti-necroptotic activity in human HT-29 cells assessed as protection against human TNFalpha/Smac mimetic induced necroptosis preincubated with compound upto 10 uM for 16 to 24 hrs followed by TS stimulation for 36 hrs measured by cell-titre glo luminescent cell viability assay; format: functional, cell-based; conditions: time 52-60 hrs
[8] = target: T1, Receptor-interacting serine/threonine-protein kinase 3; assay: Inhibition of RIPK3 phosphorylation in TSZ-induced human HT-29 cells assessed as blocking of TSZ-induced necrosome formation at 0.5 uM pretreated with compound for 6 hrs followed by TSZ stimulation for 6 hrs measured by Western analysis; format: cell-based; conditions: time 12.0 hrs
Target sequence in this assay (Q9Y572 whole entry, looked up, the tested form may be a part): as the sequence (Q9Y572 whole entry, the tested form may be a part) above

[9] = target: T2, Mixed lineage kinase domain-like protein (Homo sapiens) (UniProt Q8NB16); assay: Inhibition of MLKL phosphorylation in TSZ-induced human HT-29 cells assessed as blocking of TSZ-induced necrosome formation at 1 uM pretreated with compound for 0 to 6 hrs followed by TSZ stimulation for 6 hrs measured by Western analysis; format: cell-based; conditions: time 6-12 hrs
T2 sequence (whole entry): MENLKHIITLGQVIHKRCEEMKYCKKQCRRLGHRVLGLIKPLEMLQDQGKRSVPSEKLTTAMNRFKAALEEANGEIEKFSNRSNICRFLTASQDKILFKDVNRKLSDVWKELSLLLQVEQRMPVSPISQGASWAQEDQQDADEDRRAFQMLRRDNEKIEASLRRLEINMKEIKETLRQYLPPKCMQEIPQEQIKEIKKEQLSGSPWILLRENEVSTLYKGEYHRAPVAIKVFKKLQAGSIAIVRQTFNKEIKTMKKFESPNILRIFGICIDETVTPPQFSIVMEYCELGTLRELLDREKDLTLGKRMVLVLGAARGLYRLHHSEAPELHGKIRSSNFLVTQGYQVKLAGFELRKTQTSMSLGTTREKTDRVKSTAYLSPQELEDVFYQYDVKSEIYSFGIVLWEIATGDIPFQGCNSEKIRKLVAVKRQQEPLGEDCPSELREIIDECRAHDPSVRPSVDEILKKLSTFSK

HT-29 [10] = assay: Anti-necroptotic activity in TSZ induced human HT-29 cells assessed as inhibition of necrosome formation preincubated with compound at 1 uM for 6 hrs followed by TSZ stimulation for 6 hrs measured by cell-titre glo luminescent cell viability assay; format: functional, cell-based; conditions: time 12.0 hrs
Mus musculus [11] = assay: In vivo anti-necrotptic activity in mTNFalpha induced C57BL/6J SIRS mouse model assessed as protection from body temperature loss pretreated at 10 mg/kg, po for 1 hr followed by mTNFalpha/Z-VAD-FMK administration measured after 45 mins by electric thermometer; format: functional, organism-based; conditions: time 105.0 min
Mus musculus [12] = assay: In vivo anti-necrotptic activity in mTNFalpha induced C57BL/6J SIRS mouse model assessed as survival rate pretreated at 10 mg/kg, po for 1 hr followed by mTNFalpha/Z-VAD-FMK administration measured after 40 mins relative to control; format: functional; conditions: time 100 min, 1.667 h
Mus musculus [13] = assay: In vivo anti-necrotptic activity in mTNFalpha induced C57BL/6J SIRS mouse model assessed as reduction in serum IL-1beta level pretreated at 5 to 20 mg/kg, po for 1 hr followed by mTNFalpha/Z-VAD-FMK administration measured after 3 hrs by ELISA analysis; format: functional, organism-based; conditions: dose 5-20 mg/kg, time 4.0 hrs
Mus musculus [14] = assay: In vivo anti-inflammatory activity in NNK induced induced C57BL/6J ALI mouse model assessed as less congestion in lung pretreated at 25 to 100 mg/kg, ip for 1 hr followed by NNK administration by HE staining analysis; format: functional, organism-based; conditions: dose 25-100 mg/kg
Mus musculus [15] = assay: In vivo anti-inflammatory activity in NNK induced induced C57BL/6J ALI mouse model assessed as intact alveolar structure in lung pretreated at 25 to 100 mg/kg, ip for 1 hr followed by NNK administration by HE staining analysis; format: functional, organism-based; conditions: dose 25-100 mg/kg
Mus musculus [16] = assay: In vivo anti-inflammatory activity in NNK induced induced C57BL/6J ALI mouse model assessed as decrease in wet lung weight pretreated at 25 to 100 mg/kg, ip for 1 hr followed by NNK administration relative to disease model; format: functional, organism-based; conditions: dose 25-100 mg/kg
Mus musculus [17] = assay: In vivo anti-inflammatory activity in NNK induced induced C57BL/6J ALI mouse model assessed as lung injury score pretreated at 50 mg/kg, ip for 1 hr followed by NNK administration relative to disease model (reference value: 5.7 +/- 0.5); format: functional
Mus musculus [18] = assay: In vivo anti-inflammatory activity in NNK induced induced C57BL/6J ALI mouse model assessed as lung injury score pretreated at 100 mg/kg, ip for 1 hr followed by NNK administration relative to disease model (reference value: 5.7 +/- 0.5); format: functional
Mus musculus [19] = assay: In vivo anti-inflammatory activity in NNK induced induced C57BL/6J ALI mouse model assessed as decrease in bronchoalveolar lavage fluid (BALF) TNF-alpha level pretreated at 25 to 100 mg/kg, ip for 1 hr followed by NNK administration; format: functional, organism-based; conditions: dose 25-100 mg/kg
Mus musculus [20] = assay: In vivo anti-inflammatory activity in NNK induced induced C57BL/6J ALI mouse model assessed as decrease in lung TNF-alpha mRNA level pretreated at 25 to 100 mg/kg, ip for 1 hr followed by NNK administration; format: functional, organism-based; conditions: dose 25-100 mg/kg
Mus musculus [21] = assay: In vivo anti-inflammatory activity in NNK induced induced C57BL/6J ALI mouse model assessed as decrease in lung IL-6 mRNA level pretreated at 25 to 100 mg/kg, ip for 1 hr followed by NNK administration; format: functional, organism-based; conditions: dose 25-100 mg/kg
Mus musculus [22] = assay: In vivo anti-necrotoptic activity in NNK induced induced C57BL/6J ALI mouse model assessed as reduction in RIPK1 phosphorylation pretreated at 25 to 100 mg/kg, ip for 1 hr followed by NNK administration; format: functional, organism-based; conditions: dose 25-100 mg/kg
Mus musculus [23] = assay: In vivo anti-necrotoptic activity in NNK induced induced C57BL/6J ALI mouse model assessed as reduction in RIPK1 phosphorylation pretreated at 100 mg/kg, ip for 1 hr followed by NNK administration; format: functional; design: scale not given: the % may be the effect or the level left

## CCS(=O)(=O)NC1CCC(C(=O)Nc2nc3cc(F)c(Oc4ccc(F)c(NC(=O)Cc5cccc(C(F)(F)F)c5)c4)cc3s2)CC1 (stereo not drawn)
HT-29 [1]
  Activity: inactive
HT-29 [2]
  CC50: > 100 µM
HT-29 [3]
  Activity: Active
[4]
  Kd: > 10 µM
HT-29 [5]
  Activity: 100%
HT-29 [6]
  Activity: >50%
HT-29 [7]
  Activity: inactive
[8]
  inhibition: Active
[9]
  inhibition: Active
HT-29 [10]
  Activity: Active
Mus musculus [11]
  Activity: Active
Mus musculus [12]
  Activity: 90%
Mus musculus [13]
  Activity: Active
Mus musculus [14]
  Activity: Active
Mus musculus [15]
  Activity: Active
Mus musculus [16]
  Activity: Active
Mus musculus [17]
  Activity: 3.3
Mus musculus [18]
  Activity: 2.7
Mus musculus [19]
  Activity: Active
Mus musculus [20]
  Activity: Active
Mus musculus [21]
  Activity: Active
Mus musculus [22]
  Activity: Active
Mus musculus [23]
  Activity: 100%
